From patent US20080311681A1, “Antibody Binding Affinity Ligands” (priority 2004, published 2008)
Several values for one entry are separate records, joined by “and”; a condition that tells them apart may be missing. Identical values can stand only once.

What follows are substances tested on Fc fragment of an antibody (assay: Incubation of bead-bound ligands with labelled Fc fragment, fluorescence on beads). Conditions: Oregon Green labelled Fc fragment, ligands on PEGA1900 beads, overnight at room temperature, arbitrary scale from 0 to 3, judged by eye.
Type: binding
Design: key: 0 indicates no fluorescence; 3 indicates the strongest level of fluorescence observed
Procedure: The Fc fragment of an antibody was purified by dialysis in bicarbonate buffer (pH 8). The purified Fc fragment was treated with Oregon Green dye (50×) in DMF and kept for 1 hour at room temperature. The reaction was stopped by adding hydroxylamine (1.5 M, pH 8.5). The labelled polypeptide was purified by dialysis in bicarbonate buffer (pH 8).
The beads (10 mg) were washed with water (10×), bicarbonate buffer (pH 8, 10×), and were suspended in bicarbonate buffer for 1 h. The labelled polypeptide was then added to the resin and kept overnight at room temperature. The resin was washed with bicarbonate buffer (pH 8) and water.
The fluorescence on the beads was recorded by using a fluorescence microscope and a digital camera. A mercury lamp equipped with an emission filter provided excitation in the visible blue range. The images of the beads were recorded in water.
The below table lists the ligands and the corresponding apparent level of fluorescence determined by simply looking at the samples and comparing the apparent colour intensities between samples. On an arbitrary scale from 0 to 3, where 0 indicates no fluorescence and 3 indicates the strongest level of fluorescence observed.

Substance	mark (apparent level of fluorescence)
DBHBA-(L)Asn-(L)Arg-Gly [LII#55]	3
D-Pro-PPC-(L)Arg-Gly [L1#21]	2
PPC-D-Leu-PPC-Gly [L1#50]	3
SAA-(L)Pro-(L)Arg-Gly [LII#49]	3
L-Arg-(L)Arg-D-Lys-Gly [LI#27]	2
4HBA-(L)Arg-(L)Pro-Gly [LII#46]	2
D-Lys-INA-(L)Arg-Gly [LI#41]	2
3HBA-(L)Pro-(L)Arg-Gly [LII#45]	2
PPC-D-Pro-(L)Arg-Gly [LI#19]	3
4HBA-(L)Pro-(L)Arg-Gly [LII#47]	2
PPC-Nle-PPC-Gly [LI#56]	2
PPC-(L)Arg-D-Pro-Gly [LI#20]	2
L-Arg-(L)Arg-D-Phe-Gly [LI#18]	2
PPC-Ahx-PPC-Gly [LI#53]	2
3HBA-(L)Arg-(L)Pro-Gly [LII#44]	2
INA-D-Phe-PPC-Gly [LI#12]	2
SAA-(L)Arg-(L)Pro-Gly [LII#48]	3
L-Arg-D-Lys-(L)Arg-Gly [LI#26]	2
L-Arg-D-Phe-(L)Arg-Gly [LI#17]	3 and 2
INA-(L)Arg-D-Lys-Gly [LI#44]	2
L-Arg-D-Pro-PPC-Gly [LI#24]	2
PPC-Aib-PPC-Gly [LI#14]	2
D-Phe-(L)Arg-(L)Arg-Gly [LI#16]	2
DBHBA-(L)Arg-(L)Asn-Gly [LII#54]	3

Same assay, conditions: Oregon Green labelled Fc fragment, ligands on PEGA1900 beads, overnight at room temperature, arbitrary scale from 0 to 3, judged by eye; listed as L1#16

Substance	mark (apparent level of fluorescence)
D-Phe-(L)Arg-(L)Arg-Gly [LI#16]	3

The substances below were run on monoclonal antibody (assay: Chromatographic evaluation of ligands coupled on Fractogel (packed column, load, wash, elution, regeneration)). Conditions: not optimized operation conditions.
Type: binding
Procedure: The new resins were assessed in packed mode. 1 mL of each resin was packed into an HR5 chromatography column (GE Healthcare) applying standard conditions.
Before loading the matrix with the monoclonal antibody, the column was equilibrated with 6 column volumes equilibration buffer containing 50 mM Na-phosphate (pH 7.0; cond. 9 mS cm^−1). After equilibration a monoclonal antibody solution in equilibration buffer (protein conc. 1.14 mg/mL) was loaded to the column. Subsequently, the column was washed with 6 column volumes of equilibration buffer and eluted with 6 column volumes of elution buffer 1 (25 mM sodium acetate pH 5.5; cond. 1.8 mS cm^−1) and 6 column volumes of elution buffer 2 (25 mM sodium acetate buffer pH 3.8; 0.5 mS cm^−1). The column was stored in […] ethanol. Afterwards, the matrix was regenerated with 40 mM phosphoric acid and 20 mM sodium hydroxid. The flow rate for equilibration, load and wash was 60 cm/h, elution and regeneration was performed at a flow rate of 30 cm/h.

Substance	mAb in the flow through (in words)
DBHBA-(L)Asn-(L)Arg-Gly [LII#55]	only limited material is in the flow through
D-Phe-(L)Arg-(L)Arg-Gly [LI#16]	nothing was detected in the flow through
